Patent publication US5521197A, “3-<1-alkylenearyl>-4-<1,2,3,6-tetrahydropyridinyl>-and 3-<1-alkylenearyl>-4-piperidinyl-1h-indoles: new 5-HT1F agonists” (Eli Lilly and Company, priority 1994, dated 1996)
Where a name gives a salt, the structure may show the parent alone.

Target: T1, 5-HT1F receptor (Homo sapiens, UniProt P30939)
T1 sequence (P30939 1-366): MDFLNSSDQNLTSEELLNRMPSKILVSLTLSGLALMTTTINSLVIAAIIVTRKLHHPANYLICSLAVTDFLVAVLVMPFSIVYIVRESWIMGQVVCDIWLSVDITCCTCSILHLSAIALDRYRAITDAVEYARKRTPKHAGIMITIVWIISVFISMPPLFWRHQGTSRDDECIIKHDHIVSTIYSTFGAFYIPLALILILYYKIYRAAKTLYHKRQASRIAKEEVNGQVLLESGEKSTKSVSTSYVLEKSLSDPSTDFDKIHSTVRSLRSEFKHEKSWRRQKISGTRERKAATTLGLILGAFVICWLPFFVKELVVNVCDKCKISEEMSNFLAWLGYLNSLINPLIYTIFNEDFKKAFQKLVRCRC
Experiment: Radioligand ([3H]5-HT) binding to the 5-HT1F receptor subtype
Set-up: expressed in transfected cells; host or cells: Ltk- cells (membranes)
Settings: not given
Protocol: The cells were washed twice with phosphate-buffered saline, scraped from the culture dishes into 5 mL of ice-cold phosphate-buffered saline, and centrifuged at 200×g for 5 minutes at 4° C. The pellet was resuspended in 2.5 mL of ice-cold Tris buffer (20 mM Tris HCl, pH=7.4 at 23° C., 5 mM EDTA) and homogenized with a Wheaton tissue grinder. The lysate was subsequently centrifuged at 200×g for 5 minutes at 4° C. to pellet large fragments which were discarded. The supernatant was collected and centrifuged at 40,000×g for 20 minutes at 4° C. The pellet resulting from this centrifugation was washed once in ice-cold Tris wash buffer and resuspended in a final buffer containing 50 mM Tris HCl and 0.5 mM EDTA, pH=7.4 at 23° C. Membrane preparations were kept on ice and utilized within two hours for the radioligand binding assays.
Saturation studies were conducted using [^3 H]5-HT at 12 different concentrations ranging from 0.5 nM to 100 nM. […] The binding profile of drugs in competition experiments was accomplished using 10-12 concentrations of compound. […] Nonspecific binding was defined in the presence of 10 μM 5-HT. Binding was initiated by the addition of 50 μL membrane homogenates (10-20 μg). The reaction was terminated by rapid filtration through presoaked (0.5% polyethyleneimine) filters using 48R Cell Brandel Harvester (Gaithersburg, Md.). Subsequently, filters were washed for 5 seconds with ice cold buffer (50 mM Tris HCl, pH=7.4 at 4° C.), dried and placed into vials containing 2.5 mL Readi-Safe (Beckman, Fullerton, Calif.) and radioactivity was measured using a Beckman LS 5000TA liquid scintillation counter. […] Binding data was analyzed by computer-assisted nonlinear regression analysis (Accufit and Accucomp, Lunden Software, Chagrin Falls, Ohio). […] All experiments were performed in triplicate. […]

| Structure (SMILES) | Ki [nM] |
| --- | --- |
| NC(=O)c1ccc2[nH]cc(C3=CCN(CCc4ccccc4)CC3)c2c1 [Example 24, 5-carboxamido-3-<1-<2-phenylethyl>-4-<1,2,3,6-tetrahydropyridinyl>>-1H-indole maleate] | 23.6 |
| Clc1ccc2[nH]cc(C3=CCN(CCc4ccccc4)CC3)c2c1 [Example 20, 5-chloro-3-<1-<2-phenylethyl>-4-<1,2,3,6-tetrahydropyridinyl>>-1H-indolehydrochloride] | 38.8 |
| C1=C(c2c[nH]c3ccccc23)CCN(CCc2ccccc2)C1 [Example 19, 3-<1-<2-phenylethyl>-4-<1,2,3,6-tetrahydropyridinyl>>-1H-indole] | 81.1 |
| Fc1ccc2[nH]cc(C3=CCN(CCc4ccccc4)CC3)c2c1 [Example 18, 5-fluoro-3-<1-<2-phenylethyl>-4-<1,2,3,6-tetrahydropyridinyl>>-1H-indolehydrochloride] | 48.3 |

Same assay, conditions: Table I, [3H]5-HT displacement, transfected Ltk- cell membranes, 37° C.; read-out: 5-HT1F BINDING Ki

| Structure (SMILES) | Ki [nM] |
| --- | --- |
| COc1ccc2[nH]cc(C3CCN(CCc4ccccc4)CC3)c2c1 [Example 28, 5-methoxy-3-<1-<2-phenylethyl>-4-piperidinyl>-1H-indole hydrochloride] | 39.2 |
| Cc1ccc2[nH]cc(C3CCN(CCc4ccccc4)CC3)c2c1 [Example 30, 5-methyl-3-<1-<2-phenylethyl>-4-piperidinyl>-1H -indole hydrochloride] | 37.8 |
| Clc1ccc2[nH]cc(C3CCN(CCc4ccccc4)CC3)c2c1 [Example 27, 5-chloro-3-<1-<2-phenylethyl>-4-piperidinyl>-1H-indole hydrochloride] | 45.5 |
| C1=C(c2c[nH]c3ccccc23)CCN(Cc2ccccc2)C1 [Example 44, 3-<1-benzyl-4-<1,2,3,6-tetrahydropyridinyl>>-1H-indole hydrochloride] | 396 |
| C1=C(c2c[nH]c3ccccc23)CCN(CCOc2ccccc2)C1 [Example 37, 3-<1-<2-phenoxyethyl>-4-<1,2,3,6-tetrahydropyridinyl>>-1H-indolehydrochloride] | 413 |
| c1ccc(CCN2CCC(c3c[nH]c4ccc(OCc5ccccc5)cc34)CC2)cc1 [Example 29, 5-benzyloxy-3-<1-<2-phenylethyl>-4-piperidinyl>-1H-indole hydrochloride] | 17.2 |
| Fc1ccc(CCN2CCC(c3c[nH]c4ccccc34)CC2)cc1 [Example 3, 3-<1-<2-<4-fluorophenyl>ethyl>-4-piperidinyl>-1H-indole hydrochloride] | 31 |
| Clc1ccccc1CCN1CCC(c2c[nH]c3ccccc23)CC1 [Example 5, 3-<1-<2-<2-chlorophenyl>ethyl>-4-piperidinyl>-1H-indole hydrochloride] | 35.2 |
| CCOc1ccc(CCN2CCC(c3c[nH]c4ccccc34)CC2)cc1 [Example 14, 3-<1-<2-<4-ethoxyphenyl>ethyl>-4-piperidinyl>-1H-indole hydrochloride] | 185 |
| FC(F)(F)c1cccc(CCN2CCC(c3c[nH]c4ccccc34)CC2)c1 [Example 17, 3-<1-<2-<3-trifluoromethylphenyl>ethyl>-4-piperidinyl>-1H -indole] | 16.1 |
| c1ccc(CN2CCC(c3c[nH]c4ccccc34)CC2)cc1 [Example 45, 3-<1-benzyl-4-piperidinyl>-1H -indole] | 240 |
| FC(F)(F)c1ccccc1CCN1CCC(c2c[nH]c3ccccc23)CC1 [Example 16, 3-<1-<2-<2-trifluoromethylphenyl>ethyl>-4-piperidinyl>-1H-indolehydrochloride] | 64.3 |
| c1ccc(COc2ccc(CCN3CCC(c4c[nH]c5ccccc45)CC3)cc2)cc1 [Example 15, 3-<1-<2-<4-benzyloxyphenyl>ethyl>-4-piperidinyl>-1H-indole] | 844 |
| C1=C(c2c[nH]c3ccccc23)CCN(CCCCc2ccccc2)C1 [Example 43, 3-<1-<4-phenylbutyl>-4-<1,2,3,6-tetrahydropyridinyl>>-1H-indolehydrochloride] | 547 |
| c1ccc(CCN2CCC(c3c[nH]c4ccccc34)CC2)cc1 [Example 26, 3-<1-<2-phenylethyl>-4-piperidinyl>-1H-indole] | 52.1 |
| c1ccc(OCCCN2CCC(c3c[nH]c4ccccc34)CC2)cc1 [Example 41, 3-<1-<3-phenoxypropyl>-4-piperidinyl>-1H-indole hydrochloride] | 91.4 |
| Fc1ccc2[nH]cc(C3CCN(CCc4ccccc4)CC3)c2c1 [Example 25, 5-fluoro-3-<1-<2-phenylethyl>-4-piperidinyl>-1H-indole hydrochloride] | 29.6 |

Results, then the compound that gave them:

| Ki [nM] | Structure (SMILES) |
| --- | --- |
| 45 | Cc1ccccc1CCN1CCC(c2c[nH]c3ccccc23)CC1 [Example 8, 3-<1-<2-<2-methylphenyl>ethyl>-4-piperidinyl>-1H-indole hydrochloride] |
| 11.7 | Clc1cccc(CCN2CCC(c3c[nH]c4ccccc34)CC2)c1 [Example 6, 3-<1-<2-<3-chlorophenyl>ethyl>-4-piperidinyl>-1H-indole hydrochloride] |
| 73.3 | Brc1ccc(CCN2CCC(c3c[nH]c4ccccc34)CC2)cc1 [Example 7, 3-<1-<2-<4-bromophenyl>ethyl>-4-piperidinyl>-1H-indole hydrochloride] |
| 29.7 | Cc1cccc(CCN2CCC(c3c[nH]c4ccccc34)CC2)c1 [Example 9, 3-<1-<2-<3-methylphenyl>ethyl>-4-piperidinyl>-1H-indole hydrochloride] |
| 55.5 | Fc1cccc(CCN2CCC(c3c[nH]c4ccccc34)CC2)c1 [Example 2, 3-<1-<2-<3-fluorophenyl>ethyl>-4-piperidinyl>-1H-indole hydrochloride] |
| 76.7 | c1ccc2c(CCN3CCC(c4c[nH]c5ccccc45)CC3)cccc2c1 [Example 35, 3-<1-<2-<1-naphthyl>ethyl>-4-piperidinyl>-1H-indole] |
| 20.4 | c1ccc(CCCCN2CCC(c3c[nH]c4ccccc34)CC2)cc1 [Example 46, 3-<1-<4-phenylbutyl>-4-piperidinyl>-1H-indole hydrochloride] |
| 128 | COc1ccc(CCN2CCC(c3c[nH]c4ccc(OC)cc34)CC2)cc1 [Example 13, 5-methoxy-3-<1-<2-<4-methoxyphenyl>ethyl>-4-piperidinyl>-1H-indole oxalate] |
| 342 | c1ccc(SCCN2CCC(c3c[nH]c4ccccc34)CC2)cc1 [Example 42, 3-<1-<2-<phenylthio>ethyl>-4-piperidinyl>-1H-indole] |
| 67.6 | Cc1ccc(CCN2CCC(c3c[nH]c4ccccc34)CC2)cc1 [Example 10, 3-<1-<2-<4-methylphenyl>ethyl>-4-piperidinyl>-1H-indole hydrochloride] |
| 21.1 | COc1cccc(CCN2CCC(c3c[nH]c4ccccc34)CC2)c1 [Example 12, 3-<1-<2-<3-methoxyphenyl>ethyl>-4-piperidinyl>-1H-indole hydrochloride] |
| 52.1 | Clc1ccc(CCN2CCC(c3c[nH]c4ccccc34)CC2)cc1 [Example 32, 3-<1-<2-<4-chlorophenyl>ethyl>-4-piperidinyl>-1H-indole hydrochloride] |
| 29.5 | Fc1ccccc1CCN1CCC(c2c[nH]c3ccccc23)CC1 [Example 1, 3-<1-<2-<2-fluorophenyl>ethyl>-4-piperidinyl>-1H-indole hydrochloride] |
| 2.5 | Oc1ccc2[nH]cc(C3CCN(CCc4ccccc4)CC3)c2c1 [Example 36, 5-hydroxy-3-<1-<2-phenylethyl>-4-piperidinyl>-1H-indole hydrochloride] |
| 127 | COc1ccc(CCN2CCC(c3c[nH]c4ccccc34)CC2)cc1 [Example 33, 3-<1-<2-<4-methoxyphenyl>ethyl>-4-piperidinyl>-1H-indole hydrochloride] |

Same assay, conditions: read-out: 5-HT1F BINDING, % displacement at 1000 nM

| Structure (SMILES) | inhibition at 1 µM [%] |
| --- | --- |
| C1=C(c2c[nH]c3ccccc23)CCN(CCSc2ccccc2)C1 [Example 39, 3-<1-<2-<phenylthio>ethyl>-4-<1,2,3,6-tetrahydropyridinyl>>-1H-indole] | 34 |
| C1=C(c2c[nH]c3ccc(OCc4ccccc4)cc23)CCN(CCc2ccccc2)C1 [Example 22, 5-benzyloxy-3-<1-<2-phenylethyl>-4-<1,2,3,6-tetrahydropyridinyl>>-1H-indolehydrochloride] | 62 |
| C1=C(c2c[nH]c3ccccc23)CCN(CCc2cccc3ccccc23)C1 [Example 34, 3-<1-<2-<1-naphthyl>ethyl>-4-<1,2,3,6-tetrahydropyridinyl>>-1H-indole] | 38 |
